Assay results taken from patent US9107852B2, “Uses of agonists of delta opioid receptor in cosmetic and dermocosmetic field” (Induchem Holding AG, priority 2012, dated 2015).
Ends that are not written are not given here.

What was measured:
delta2 opioid receptor = target: T1, delta2 opioid receptor (Mus musculus, UniProt P32300); assay: Agonist effect at the delta2 opioid receptor (DOP), cell impedance; assay type: cell-based
T1 construct: host or cells: unnamed cells 'bearing the delta2 opioid receptor'
Description: Frozen spinach leaves were thawed and disrupted in fine particles a blender. This juice was further treated with ultrasounds to disrupt cells and proteins were recovered by acidic precipitation. These proteins were then digested by several enzymes, including pepsin and papain. The hydrolysate was purified (ultrafiltration), fractionated and stored before testing. Meanwhile, synthetic peptides were ordered from a manufacturer. The peptides and the hydrolysates were tested on cells bearing the delta2 opioid receptor and cell impedance was measured to evaluate the binding activity of the tested compounds (Law and Loh, 1993).
The EC50 values (concentration producing a half-maximal specific response) and IC50 values (concentration causing a half-maximal inhibition of the control specific agonist response) were determined by non-linear regression analysis of the concentration-response curves generated with mean replicate values using Hill equation curve fitting (Y=D+[(A D)/(1+(C/C50)nH)], where Y=specific response, D=minimum specific response, A=maximum specific response, C=compound concentration, and C50=EC50 or IC50, and nH=slope factor).

[1] = system: reconstructed human epidermis (RHE); assay: Protein expression (in situ immunolabeling) in RHE stimulated with cytokines; assay type: cell-based; settings: 3 PPM peptide, % of level in non treated RHE
Description: In the present study, the effects of a peptide on the expression of 7 proteins were assessed on a reconstructed human epidermis (RHE) model stimulated or not with a mix of cytokines (IL-17+OSM+TNF-α).
More precisely, effects of compounds were evaluated on the protein expression of markers involved in: • tight junctions (Occludin), • […] (Corneosdesmosin) • keratinocyte differentiation (keratin 10, involucrin, calmodulin-like5), • and lipid synthesis (Acyl-CoA synthetase and sulfotransferase 2B).
Reconstructed human epidermis (RHE) of 11 days old were prepared according to a derived method described by Poumay et al. (2004). These RHE were cultivated at 37° C. and 5% of CO2 in a specific maintenance medium.
The RHE were treated with assay medium containing or not (control) the test compounds or the JAK inhibitor I at 10 μM and incubated for 24 hours. After pre-incubation, assay medium and treatments were renewed and epidermises were stimulated with a cytokine mix (OSM+IL-17+TNF-α*) at 3 ng/ml and incubated for additional 48 hours. All experimental conditions were performed in n=3. *Oncostatin M (OSM)+Interleukin 17 (IL-17)+ Tumor necrosis factor alpha (TNF-α)
At the end of incubation, the supernatants were collected and the RHE were washed in phosphate buffered saline solution (PBS) for in situ immunolabeling.
After incubation, the RHE were snap-frozen in liquid isopentane/N2 and stored at −80° C. The transversal sections were carried out using a microtome (5 μm thickness, one slide per RHE, several sections per slide).
The sections were fixed with an acetone/methanol mix and dried. After PBS-milk 5% saturation, the sections were incubated with the specific primary antibody solutions. […] The sections were washed and then observed under epifluorescence microscopy.
After incubation, RHE were rinsed and fixed with formaldehyde solution. Fixed tissues were dehydrated in multiple baths with increasing concentration of ethanol and then embedded in paraffin. The transversal sections were carried out using a microtome (5 μm thickness) and stored at room temperature.
The sections were deparaffinized then the antigenic sites were retrieved. The sections were washed and incubated with hydrogen peroxide. The sections, once washed, were incubated with the primary antibody (anti-Calmodulin-like 5 or anti-SULT2B1). […] After peroxidase-conjugated streptavidine and peroxidase substrate addition, nuclei were counter-stained with a solution of haematoxylin. The sections were washed, mounted in aqueous medium and observed under transmitted-light microscopy.
Sections were observed using a NIKON E400 microscope. Images were captured with a NIKON DS-Ri1 and processed with NIS-Elements 3.10 software (3 pictures per replicate). The image analysis was performed by measuring the fluorescence intensity using Image J software.
Results were expressed in % of the level of expression of each protein maker in non treated RHE.

[2] = system: opioid receptor delta (DOR); assay: Scoring of DOR1 expression in RHE stimulated with cytokines; assay type: cell-based, human; settings: JAK inhibitor I tested at 10 μM
Description: In the present study, the effects of a peptide (YPLDLF, SEQ ID No 1) on the expression of opioid receptor delta (DOR) were researched on a reconstructed human epidermis (RHE) model under basal or stimulated conditions. More precisely, the RHE were stimulated by a mix of cytokines (IL-17+OSM+TNF-α) able to induce a strong inflammatory profile and a psoriatic phenotype in keratinocytes.
Reconstructed human epidermis (RHE) of 11 days old was prepared according to a derived method described by Poumay et al. (2004). These RHE were cultivated at 37° C. and 5% of CO2 in a specific maintenance medium.
The RHE treated under basal conditions were placed in assay medium containing or not (non-stimulated control) the peptide solutions and incubated for 54 hours. For inflammatory conditions, the RHE were placed in assay medium containing or not (stimulated control) the peptide solutions or the reference […] at 10 μM) and pre-incubated for 6 hours. The RHE were then stimulated with a mix of cytokines (IL-17+OSM+TNF-α at 3 ng/ml) and incubated for 48 hours. All experimental conditions were performed in n=3.
At the end of incubation, the supernatants were collected and the RHE were washed in phosphate buffered saline solution (PBS) for immunohistofluorescence analysis. […]

[3] = percent of control specific agonist response (DPDPE)

T1 sequence (P32300 whole entry): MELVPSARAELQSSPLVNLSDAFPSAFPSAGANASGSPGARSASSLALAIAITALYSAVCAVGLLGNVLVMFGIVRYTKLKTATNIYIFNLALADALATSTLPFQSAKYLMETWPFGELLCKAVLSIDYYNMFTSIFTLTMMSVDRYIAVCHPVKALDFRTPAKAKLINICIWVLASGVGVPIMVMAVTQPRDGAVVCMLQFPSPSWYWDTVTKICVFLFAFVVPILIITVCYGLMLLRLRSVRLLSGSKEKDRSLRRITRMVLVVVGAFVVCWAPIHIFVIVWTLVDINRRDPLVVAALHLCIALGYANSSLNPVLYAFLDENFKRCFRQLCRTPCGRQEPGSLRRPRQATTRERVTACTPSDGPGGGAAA

## YPLDLF [YPLDLF]
delta2 opioid receptor
  EC50: 3.9 µM
delta2 opioid receptor; [3]
  A (Hill curve fit parameter): −8.3
  D (Hill curve fit parameter): 100.0
[1]
  Acyl-CoA synthetase protein expression level in RHE: 65%
  Calmodulin like 5 protein expression level in RHE: 100%
  Corneodesmosin protein expression level in RHE: 84%
  Involucrin protein expression level in RHE: 99%
  Keratin 10 protein expression level in RHE: 104%
  Occludin protein expression level in RHE: 97%
  Sulfotransferase 2B protein expression level in RHE: 100%
[2]
  inhibitory effect of the cytokine mix on OPRD1 expression: reversed
